Laboratory results: the supplement of paper PMC10307832

Columns and labels:
Assay in all cases: relative viability (nuclei count vs DMSO), 5 days (fraction); higher = more cells survive
[1] = compound: COc1cc2nc(N3CCCN(C)CC3)nc(NC3CCN(Cc4ccccc4)CC3)c2cc1OC
Outline: (§1)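 On vehicle-anchored 1536-well plates, lung cancer cell lines held overnight at 37 °C were pinned with five library-drug doses (not always all listed) spaced by √10. With no medium change over 5 days, they were then fixed, permeabilised and Hoechst-stained in one step and imaged at 4×. MetaXpress counted nuclei, and viability is the median across plates of treated-well over vehicle-well nuclei. Acceptance needed control CV below 25% and at least one doubling.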

[2] = compound: Cc1cc([C@@H](C)Nc2ccccc2C(=O)O)c2nc(N3CCOCC3)cc(=O)n2c1 [AZD6482]
Outline: as §1

[3] = compound: COc1cc2nc(N3CCCN(C)CC3)nc(NC3CCN(Cc4ccccc4)CC3)c2cc1OC + Nc1ncn([C@H]2C[C@H](O)[C@@H](CO)O2)c(=O)n1 [Decitabine] (partner 2 µM)
Outline: (§2)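 Lung cancer cell lines were seeded in 1536-well plates and dosed by pin tool the next day, with either a single drug or a fixed anchor-drug dose combined with five library-drug doses (not always all listed) spaced in √10 steps. Five days later, one step fixed the cells and stained their nuclei (final 0.05% Triton X-100, 1% formaldehyde, 1 ug/ml Hoechst), and nuclei were counted on 4× images. Relative viability is the nuclei count in treated wells divided by the count in vehicle wells, and each value is the median of duplicate plates.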

[4] = compound: Cc1cc([C@@H](C)Nc2ccccc2C(=O)O)c2nc(N3CCOCC3)cc(=O)n2c1 [AZD6482] + C[C@]1(O)C[C@@H](c2nc(-c3ccc4ccc(-c5ccccc5)nc4c3)c3c(N)nccn32)C1 [Linsitinib] (partner 1 µM)
Outline: as §2

UMC-11 showed a relative viability ([1]; 0.2 µM) of 0.998, a relative viability ([1]; 0.6325 µM) of 0.973 and a relative viability ([1]; 2 µM) of 1.06. For the same cell line, the relative viability ([1]; 6.325 µM) was 0.932, the relative viability ([2]; 0.08 µM) was 0.949 and the relative viability ([2]; 0.253 µM) was 0.94. It also gave a relative viability ([2]; 0.8 µM) of 1.01, a relative viability ([2]; 2.53 µM) of 0.736 and a relative viability ([2]; 8 µM) of 1.22. The relative viability ([3]; first compound 0.2 µM) was 0.598, the relative viability ([3]; first compound 0.6325 µM) was 0.577 and the relative viability ([3]; first compound 2 µM) was 0.597. It also gave a relative viability ([3]; first compound 6.325 µM) of 0.451, a relative viability ([4]; first compound 0.08 µM) of 0.959 and a relative viability ([4]; first compound 0.253 µM) of 0.962. It also gave a relative viability ([4]; first compound 0.8 µM) of 0.987, a relative viability ([4]; first compound 2.53 µM) of 0.787 and a relative viability ([4]; first compound 8 µM) of 1.
